Assay results as given in patent US20170334899A1, “AMINO-SUBSTITUTED ISOTHIAZOLES” (Bayer Pharma Aktiengesellschaft, priority 2014, published 2017).

Tests used:
[1] = system: human cervical tumor cell line HeLa (ATCC CCL-2); assay: SAC-Formation - Nocodazole-Induced Assay; type: cell-based; conditions: Homo sapiens, HeLa, 24 h, HeLa cells, nocodazole 0.1 μg/ml together with test compound, decrease of mitotic cells (phospho-histone H3 Ser10)
In short: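 HeLa cells, plated overnight, were treated 24 h at 37 °C with nocodazole (0.1 μg/ml final) plus test compound (0.005–20 μM, 0.5% DMSO) added at the same time. After fixation, anti-phospho-histone H3 Ser10 and Hoechst staining gave the mitotic cell fraction by imaging. Values came from four-parameter Hill fits.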

[2] = system: human cervical tumor cell line HeLa (ATCC CCL-2); assay: SAC-Formation - Paclitaxel-Induced Assay; type: cell-based; conditions: 24 h, HeLa cells, paclitaxel 0.05 μM, test range 0.005 μM-20 μM, read-out: IC50 [mol/l] SAC-Formation - Paclitaxel-Induced Assay
In short: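 HeLa cells incubated overnight at 37° C, then given paclitaxel (0.05 μM final) plus test compound (0.005–20 μM, 0.5% DMSO) together for 24 h at 37° C. Fixed cells stained for phospho-histone H3 Ser10 (mitotic cells) and Hoechst 33342 (cell count); imaging-derived mitotic index fitted by four-parameter Hill equation.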

IC50 [1] | IC50 ([2]; Homo sapiens, HeLa) | IC50 [2] | SMILES
30 nM | 27 nM | 42 nM | Cc1nsc(Nc2cnc(C(F)(F)F)cn2)c1C(=O)Nc1ccc(F)c(OC[C@@H]2CCN(CC(F)F)C2)c1 [Example 403, N-(3-{[(3R)-1-(2,2-difluoroethyl)pyrrolidin-3-yl]methoxy}-4-fluorophenyl)-3-methyl-5-{[5-(trifluoromethyl)pyrazin-2-yl]amino}-1,2-thiazole-4-carboxamide]
1200 nM | 3400 nM | – | Cc1nsc(Nc2cnc(C(F)(F)F)cn2)c1C(=O)Nc1ccc(OCC2CCN(CCC(F)(F)F)CC2(F)F)nc1 (stereo not drawn) [Example 402, N-(6-{[3,3-difluoro-1-(3,3,3-trifluoropropyl)piperidin-4-yl]methoxy}pyridin-3-yl)-3-methyl-5-{[5-(trifluoromethyl)pyrazin-2-yl]amino}-1,2-thiazole-4-carboxamide]
700 nM | 920 nM | – | Cc1nsc(Nc2cnc(C(F)(F)F)cn2)c1C(=O)Nc1ccc(F)c(OCCCNC(=O)C(F)(F)F)c1 [Example 427, N-(4-Fluoro-3-{3-[(trifluoroacetyl)amino]propoxy}phenyl)-3-methyl-5-{[5-(trifluoro-methyl)pyrazin-2-yl]amino}-1,2-thiazole-4-carboxamide]
21 nM | 39 nM | – | Cc1nsc(Nc2cnc(C(F)(F)F)cn2)c1C(=O)Nc1ccc(O[C@@H]2CN(CCC(F)(F)F)C[C@@H]2F)nc1 [Example 409, N-(6-{[(3R,4S)-4-Fluoro-1-(3,3,3-trifluoropropyl)pyrrolidin-3-yl]oxy}pyridin-3-yl)-3-methyl-5-{[5-(trifluoromethyl)pyrazin-2-yl]amino}-1,2-thiazole-4-carboxamide]
33 nM | 49 nM | – | CCN1CCC(Oc2ccc(NC(=O)c3c(C)nsc3Nc3cnc(C(F)(F)F)cn3)cn2)C(F)(F)C1 (stereo not drawn) [Example 406, N-{6-[(1-Ethyl-3,3-difluoropiperidin-4-yl)oxy]pyridin-3-yl}-3-methyl-5-{[5-(trifluoromethyl)pyrazin-2-yl]amino}-1,2-thiazole-4-carboxamide]
74 nM | 320 nM | – | CCN1CC[C@H](Oc2ccc(NC(=O)c3c(C)nsc3Nc3cnc(C(F)(F)F)cn3)cn2)[C@H](F)C1 [Example 424, N-(6-{[(3R,4S)-1-Ethyl-3-fluoropiperidin-4-yl]oxy}pyridin-3-yl)-3-methyl-5-{[5-(trifluoromethyl)pyrazin-2-yl]amino}-1,2-thiazole-4-carboxamide]
81 nM | 59 nM | – | Cc1nsc(Nc2cnc(C(F)(F)F)cn2)c1C(=O)Nc1ccc(F)c(OC[C@H]2CCCN(CC(F)F)C2)c1 [Example 400, N-(3-{[(3S)-1-(2,2-difluoroethyl)piperidin-3-yl]methoxy}-4-fluorophenyl)-3-methyl-5-{[5-(trifluoromethyl)pyrazin-2-yl]amino}-1,2-thiazole-4-carboxamide]
4.2 nM | 27 nM | – | Cc1nsc(Nc2cnc(C(F)(F)F)cn2)c1C(=O)Nc1ccc(F)c(O[C@H]2CCN(CC(F)(F)F)C2)c1 [Example 416, N-(4-Fluoro-3-{[(35)-1-(2,2,2-trifluoroethyl)pyrrolidin-3-yl]oxy}phenyl)-3-methyl-5-{[5-(trifluoromethyl)pyrazin-2-yl]amino}-1,2-thiazole-4-carboxamide]
12000 nM | 20000 nM | – | CC(=O)Nc1ccc(NC(=O)c2c(C)nsc2Nc2ccc(C#N)cn2)cn1 [Example 435, N-(6-Acetamidopyridin-3-yl)-5-[(5-cyanopyridin-2-yl)amino]-3-methyl-1,2-thiazole-4-carboxamide]
18 nM | 53 nM | – | Cc1nsc(Nc2cnc(C(F)(F)F)cn2)c1C(=O)Nc1ccc(F)c(O[C@H]2CCN(CCC(F)(F)F)C2)c1 [Example 415, N-(4-Fluoro-3-{[(3S)-1-(3,3,3-trifluoropropyl)pyrrolidin-3-yl]oxy}phenyl)-3-methyl-5-{[5-(trifluoromethyl)pyrazin-2-yl]amino}-1,2-thiazole-4-carboxamide]
24 nM | 39 nM | – | Cc1nsc(Nc2cnc(C(F)(F)F)cn2)c1C(=O)Nc1ccc(O[C@@H]2CN(CC(F)F)C[C@@H]2F)nc1 [Example 411, N-(6-{[(3R,4S)-1-(2,2-Difluoroethyl)-4-fluoropyrrolidin-3-yl]oxy}pyridin-3-yl)-3-methyl-5-{[5-(trifluoromethyl)pyrazin-2-yl]amino}-1,2-thiazole-4-carboxamide]
340 nM | 1200 nM | – | Cc1nsc(Nc2cnc3ccccc3n2)c1C(=O)Nc1cccc(C(=O)N[C@H](C(=O)OC(C)(C)C)[C@@H](C)OC(C)(C)C)c1 [Example 57, tert-Butyl O-tert-butyl-N-[3-({[3-methyl-5-(quinoxalin-2-ylamino)-1,2-thiazol-4 yl]carbonyl}amino)-benzoyl]threoninate]
970 nM | 3500 nM | – | Cc1nsc(Nc2cnc3ccccc3n2)c1C(=O)Nc1ccc(NCCN(C)C(=O)OC(C)(C)C)nc1 [Example 434, tert-Butyl methyl(2-{[5-({[3-methyl-5-(quinoxalin-2-ylamino)-1,2-thiazol-4-yl]carbonyl}amino)pyridin-2-yl]amino}ethyl)carbamate]
10 nM | 42 nM | – | Cc1nsc(Nc2cnc(C(F)(F)F)cn2)c1C(=O)Nc1ccc(O[C@@H]2CN(CC(F)(F)F)C[C@@H]2F)nc1 [Example 410, N-(6-{[(3R,4S)-4-Fluoro-1-(2,2,2-trifluoroethyl)pyrrolidin-3-yl]oxy}pyridin-3-yl)-3-methyl-5-{[5-(trifluoromethyl)pyrazin-2-yl]amino}-1,2-thiazole-4-carboxamide]
1200 nM | 4300 nM | – | Cc1nsc(Nc2cnc3ccccc3n2)c1C(=O)Nc1cccc(C(=O)N[C@@H](CCC(N)=O)C(=O)OC(C)(C)C)c1 [Example 56, tert-butyl N^2-[3-({[3-methyl-5-(quinoxalin-2-ylamino)-1,2-thiazol-4-yl]carbonyl}amino)-benzoyl]glutaminate]

Second part, the compound before the results:

SMILES | IC50 [1] | IC50 ([2]; Homo sapiens, HeLa) | IC50 [2]
Cc1nsc(Nc2cnccn2)c1C(=O)Nc1ccc(OCCCN)nc1 [Example 48, N-[6-(3-Aminopropoxy)pyridin-3-yl]-3-methyl-5-(pyrazin-2-ylamino)-1,2-thiazole-4-carboxamide] | 5800 nM | 6600 nM | –
Cc1nsc(Nc2cnc(C(F)(F)F)cn2)c1C(=O)Nc1ccc(OC2CCN(C(=O)OC(C)(C)C)CC2)nc1 [Example 5, tert-Butyl 4-[(5-{[(3-methyl-5-{[5-(trifluoromethyl)pyrazin-2-yl]amino}-1,2-thiazol-4-yl)carbonyl]amino}pyridin-2-yl)oxy]piperidine-1-carboxylate] | 43 nM | 110 nM | –
Cc1nsc(Nc2cnc3ccccc3n2)c1C(=O)Nc1ccc(OCCCNC(=O)OC(C)(C)C)nc1 [Example 42, tert-Butyl (3-{[5-({[3-methyl-5-(quinoxalin-2-ylamino)-1,2-thiazol-4-yl]carbonyl}-amino)pyridin-2-yl]oxy}propyl)carbamate] | 820 nM | 1700 nM | –
Cc1nsc(Nc2cc(C#N)ccn2)c1C(=O)Nc1ccc(OCCCNCC(F)F)nc1 [Example 45, 5-[(4-Cyanopyridin-2-yl)amino]-N-(6-{3-[(2,2-difluoroethyl)amino]propoxy}pyridin-3-yl)-3-methyl-1,2-thiazole-4-carboxamide] | 3500 nM | 20000 nM | –
Cc1nsc(Nc2cnccn2)c1C(=O)Nc1ccc(OCCCNC(=O)OC(C)(C)C)nc1 [Example 47, tert-Butyl (3-{[5-({[3-methyl-5-(pyrazin-2-ylamino)-1,2-thiazol-4-yl]carbonyl}-amino)pyridin-2-yl]oxy}propyl)carbamate] | 3600 nM | 13000 nM | –
Cc1nsc(Nc2cnccn2)c1C(=O)Nc1ccc(OC2CCCN(C(=O)OC(C)(C)C)C2)nc1 (stereo not drawn) [Example 41, tert-Butyl 3-{[5-({[3-methyl-5-(pyrazin-2-ylamino)-1,2-thiazol-4-yl]carbonyl}amino)-pyridin-2-yl]oxy}piperidine-1-carboxylate] | 240 nM | 1800 nM | –
Cc1nsc(Nc2ccc(C#N)cn2)c1C(=O)Nc1ccc(OC2CCCN(C(=O)OC(C)(C)C)C2)nc1 (stereo not drawn) [Example 36, tert-Butyl 3-({5-[({5-[(5-cyanopyridin-2-yl)amino]-3-methyl-1,2-thiazol-4-yl}-carbonyl)amino]pyridin-2-yl}oxy)piperidine-1-carboxylate] | 210 nM | 590 nM | –
Cc1nsc(Nc2cc(C#N)ccn2)c1C(=O)Nc1ccc(OCCCN)nc1 [Example 44, N-[6-(3-Aminopropoxy)pyridin-3-yl]-5-[(4-cyanopyridin-2-yl)amino]-3-methyl-1,2-thiazole-4-carboxamide] | 20000 nM | 20000 nM | –
Cc1nsc(Nc2cc(C#N)ccn2)c1C(=O)Nc1ccc(OC2CCCNC2)nc1 (stereo not drawn) [Example 35, 5-[(4-Cyanopyridin-2-yl)amino]-3-methyl-N-[6-(piperidin-3-yloxy)pyridin-3-yl]-1,2-thiazole-4-carboxamide] | 15000 nM | 20000 nM | –
Cc1nsc(Nc2ccc(C#N)cn2)c1C(=O)Nc1ccc(OC2CCCNC2)nc1 (stereo not drawn) [Example 37, 5-[(5-Cyanopyridin-2-yl)amino]-3-methyl-N-[6-(piperidin-3-yloxy)pyridin-3-yl]-1,2-thiazole-4-carboxamide] | 4200 nM | 5200 nM | –
